Assay results taken from patent publication US8952024B2, “Herbicidal pyrimidone derivatives” (E I du Pont de Nemours and Company, priority 2009, dated 2015).

Key:
Format in all cases: in vivo
[1] = system: barnyardgrass (Echinochloa crus-galli); experiment: Test A pre-/postemergence plant response
Procedure, shortened: (§1)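 Both pre- and postemergence treatments are applied simultaneously, using chemicals formulated in a non-phytotoxic solvent mixture with surfactant. Postemergence plants are 2–10 cm high with one to two leaves. After approximately ten days in a greenhouse, injury is scored visually from 0 (none) to 100 (complete control) relative to untreated plants.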

[2] = system: corn (Zea mays); experiment: Test A pre-/postemergence plant response
Procedure, shortened: as §1

[3] = system: giant foxtail (Setaria faberii); experiment: Test A pre-/postemergence plant response
Procedure, shortened: as §1

[4] = system: large crabgrass (Digitaria sanguinalis); experiment: Test A pre-/postemergence plant response
Procedure, shortened: as §1

[5] = system: morningglory (Ipomoea spp.); experiment: Test A pre-/postemergence plant response
Procedure, shortened: as §1

[6] = system: pigweed (Amaranthus retroflexus); experiment: Test A pre-/postemergence plant response
Procedure, shortened: as §1

[7] = system: velvetleaf (Abutilon theophrasti); experiment: Test A pre-/postemergence plant response
Procedure, shortened: as §1

[8] = system: wheat (Triticum aestivum); experiment: Test A pre-/postemergence plant response
Procedure, shortened: as §1

[9] = system: cocklebur (Xanthium strumarium); experiment: Test B pre-/postemergence plant response; conditions: for Cocklebur plant response rating: scale 0 to 100
Excerpt: (§2) Seeds of plant species selected from blackgrass (Alopecurus myosuroides), downy bromegrass (Bromus tectorum), green foxtail (Setaria viridis), Italian ryegrass (Lolium multiflorum), wheat (Triticum aestivum), wild oat (Avena fatua), deadnettle (henbit deadnettle, Lamium amplexicaule), galium (catchweed bedstraw, Galium aparine), bermudagrass (Cynodon dactylon), Surinam grass (Brachiaria decumbens), cocklebur (Xanthium strumarium), corn (Zea mays), large crabgrass (Digitaria sanguinalis), woolly cupgrass (Eriochloa villosa), giant foxtail (Setaria faberii), goosegrass (Eleusine indica), johnsongrass (Sorghum halepense), kochia (Kochia scoparia), lambsquarters (Chenopodium album), morningglory (Ipomoea coccinea), nightshade (eastern black nightshade, Solanum ptycanthum), yellow nutsedge (Cyperus esculentus), pigweed (Amaranthus retroflexus), ragweed (common ragweed, Ambrosia elatior), Russian thistle (Salsola kali), soybean (Glycine max), sunflower (common oilseed sunflower, Helianthus annuus) and velvetleaf (Abutilon theophrasti) were planted into a blend of loam soil and sand and treated preemergence with test compounds formulated in a non-phytotoxic solvent mixture which included a surfactant.
(§3) At the same time, plants selected from these crop and weed species and also winter barley (Hordeum vulgare), canarygrass (Phalaris minor), chickweed (Stellaria media) and windgrass (Apera spica-venti) were planted in pots containing Redi-Earth® planting medium (Scotts Company, 14111 Scottslawn Road, Marysville, Ohio 43041) comprising spaghnum peat moss, vermiculite, wetting agent and starter nutrients and treated with postemergence applications of some of the test chemicals formulated in the same manner. Plants ranged in height from 2 to 18 cm (1- to 4-leaf stage) for postemergence treatments.
(§4) Treated plants and controls were maintained in a greenhouse for 13 to 15 days, after which time all treated plants were visually evaluated and compared to controls. Plant response ratings, summarized in Table B, are based on a scale of 0 to 100 where 0 is no effect and 100 is complete control. A dash (-) response means no test result.

[10] = system: morningglory (Ipomoea coccinea); experiment: Test B pre-/postemergence plant response
Excerpt: as §2, §3, §4

[11] = system: soybean (Glycine max); experiment: Test B pre-/postemergence plant response
Excerpt: as §2, §3, §4

[12] = system: wheat (Triticum aestivum); experiment: Test B pre-/postemergence plant response
Excerpt: as §2, §3, §4

[13] = Postemergence, 125 g ai/ha, visual injury, 0 to 100 scale (0 no effect, 100 complete control), approx. ten days
[14] = Postemergence, 500 g ai/ha, 0 to 100 scale, 0 = no effect, 100 = complete control, approx. ten days
[15] = Preemergence, 125 g ai/ha, 0 to 100 scale, 0 = no effect, 100 = complete control
[16] = Preemergence, 500 g ai/ha, visual injury, 0 to 100 scale (0 no effect, 100 complete control), approx. ten days
[17] = 250 g ai/ha, Preemergence, 0 to 100 scale
[18] = Postemergence, 31 g ai/ha, scale 0 to 100 (0 no effect, 100 complete control)
[19] = Postemergence, 62 g ai/ha, scale 0 (no effect) to 100 (complete control), 13 to 15 days
[20] = Postemergence, 125 g ai/ha, visual rating after 13 to 15 days, scale 0 (no effect) to 100 (complete control)
[21] = Preemergence, 31 g ai/ha, scale 0 to 100 (0 no effect, 100 complete control)
[22] = Preemergence, 125 g ai/ha, 0 to 100 scale

Cc1ccc(-n2c(-c3cccc(Cl)c3)ncc(C(=O)C3=C(O)CCCC3=O)c2=O)cc1 [Compound 39]
Barnyardgrass plant response rating [1, 13]: 60
Plant response rating, Barnyardgrass [1, 14]: 90
Plant response rating, Barnyardgrass [1, 15]: 10
Plant response rating, Barnyardgrass [1, 16]: 90
Corn plant response rating [2, 13]: 0
Plant response rating, Corn [2, 14]: 40
Plant response rating, Corn [2, 15]: 0
Plant response rating, Corn [2, 16]: 0
Foxtail, Giant plant response rating [3, 13]: 80
Plant response rating, Foxtail, Giant [3, 14]: 90
Plant response rating, Foxtail, Giant [3, 15]: 50
Plant response rating, Foxtail, Giant [3, 16]: 90
Crabgrass, Large plant response rating [4, 13]: 80
Plant response rating, Crabgrass, Large [4, 14]: 90
Plant response rating, Crabgrass, Large [4, 15]: 60
Plant response rating, Crabgrass, Large [4, 16]: 90
Morningglory plant response rating [5, 13]: 80
Plant response rating, Morningglory [5, 14]: 90
Plant response rating, Morningglory [5, 15]: 40
Plant response rating, Morningglory [5, 16]: 60
Pigweed plant response rating [6, 13]: 100
Plant response rating, Pigweed [6, 14]: 100
Plant response rating, Pigweed [6, 15]: 60
Plant response rating, Pigweed [6, 16]: 90
Velvetleaf plant response rating [7, 13]: 100
Plant response rating, Velvetleaf [7, 14]: 100
Plant response rating, Velvetleaf [7, 15]: 70
Plant response rating, Velvetleaf [7, 16]: 90
Wheat plant response rating [8, 13]: 0
Plant response rating, Wheat [8, 14]: 0
Plant response rating, Wheat [8, 15]: 0
Plant response rating, Wheat [8, 16]: 0
Plant response rating, Cocklebur [9, 17]: 45
Plant response rating, Cocklebur [9, 18]: 75
Plant response rating, Cocklebur [9, 19]: 75
Plant response rating, Cocklebur [9, 20]: 95
Cocklebur plant response rating ([9]; Postemergence, 250 g ai/ha): 98
Plant response rating, Cocklebur [9, 21]: 0
Plant response rating, Morningglory [10, 17]: 100
Plant response rating, Morningglory [10, 19]: 75
Plant response rating, Morningglory [10, 20]: 75
Plant response rating, Morningglory [10, 21]: 0
Plant response rating, Morningglory ([10]; Preemergence, 62 g ai/ha, scale 0 to 100, 0 no effect, 100 complete control): 0
Morningglory plant response rating [10, 22]: 15
Plant response rating, Soybean [11, 17]: 0
Plant response rating, Soybean [11, 19]: 95
Plant response rating, Soybean [11, 20]: 98
Plant response rating, Soybean [11, 21]: 0
Soybean plant response rating [11, 22]: 0
Plant response rating, Wheat [12, 17]: 0
Plant response rating, Wheat [12, 19]: 5
Plant response rating, Wheat [12, 20]: 5
Plant response rating, Wheat [12, 21]: 0
Wheat plant response rating [12, 22]: 0

Cc1cccc(-n2c(-c3cccc(Cl)c3)ncc(C(=O)C3=C(O)CCCC3=O)c2=O)c1 [Compound 45]
Barnyardgrass plant response rating [1, 13]: 90
Plant response rating, Barnyardgrass [1, 14]: 100
Plant response rating, Barnyardgrass [1, 15]: 40
Plant response rating, Barnyardgrass [1, 16]: 80
Corn plant response rating [2, 13]: 0
Plant response rating, Corn [2, 14]: 20
Plant response rating, Corn [2, 15]: 0
Plant response rating, Corn [2, 16]: 0
Foxtail, Giant plant response rating [3, 13]: 50
Plant response rating, Foxtail, Giant [3, 14]: 90
Plant response rating, Foxtail, Giant [3, 15]: 0
Plant response rating, Foxtail, Giant [3, 16]: 80
Crabgrass, Large plant response rating [4, 13]: 60
Plant response rating, Crabgrass, Large [4, 14]: 90
Plant response rating, Crabgrass, Large [4, 15]: 50
Plant response rating, Crabgrass, Large [4, 16]: 100
Morningglory plant response rating [5, 13]: 80
Plant response rating, Morningglory [5, 14]: 100
Plant response rating, Morningglory [5, 15]: 20
Plant response rating, Morningglory [5, 16]: 90
Pigweed plant response rating [6, 13]: 90
Plant response rating, Pigweed [6, 14]: 100
Plant response rating, Pigweed [6, 15]: 80
Plant response rating, Pigweed [6, 16]: 100
Velvetleaf plant response rating [7, 13]: 100
Plant response rating, Velvetleaf [7, 14]: 100
Plant response rating, Velvetleaf [7, 15]: 60
Plant response rating, Velvetleaf [7, 16]: 100
Wheat plant response rating [8, 13]: 0
Plant response rating, Wheat [8, 14]: 40
Plant response rating, Wheat [8, 15]: 0
Plant response rating, Wheat [8, 16]: 20
Plant response rating, Cocklebur [9, 18]: 10
Plant response rating, Cocklebur [9, 19]: 50
Plant response rating, Cocklebur [9, 20]: 70
Cocklebur plant response rating ([9]; Postemergence, 250 g ai/ha): 95
Plant response rating, Morningglory [10, 17]: 0
Plant response rating, Morningglory [10, 19]: 75
Plant response rating, Morningglory [10, 20]: 80
Plant response rating, Morningglory [10, 21]: 0
Plant response rating, Soybean [11, 17]: 0
Plant response rating, Soybean [11, 19]: 95
Plant response rating, Soybean [11, 20]: 98
Plant response rating, Soybean [11, 21]: 0
Soybean plant response rating [11, 22]: 0
Plant response rating, Wheat [12, 17]: 0
Plant response rating, Wheat [12, 19]: 15
Plant response rating, Wheat [12, 20]: 15
Plant response rating, Wheat [12, 21]: 0
Wheat plant response rating [12, 22]: 0
